Target: interaction of human SOS1 (SOS1) with human K-RasG12C (Homo sapiens (Human), UniProt Q07889)
Experiment: Biochemical assay: hK-RasG12C interaction assay with hSOS1 (HTRF)
Type: binding
Conditions: GST-hK-RasG12C with His-hSOS1, 60 min incubation at 20° C., mean, read-out: K-RasG12C - SOS interaction assay IC50 (mean)
Summary of the method: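 Compounds, duplicates at 11 concentrations from 0.073 nM to 20 µM, were preincubated 2 min with 10 nM GST-hK-RasG12C, then 20 nM His-hSOS1 was added, all at 20 °C. After 60 min, 665/620 nm HTRF ratio normalized to DMSO and SOS1-free controls; IC50 by 4-parameter fit.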

Chain of interaction of human SOS1 (SOS1) with human K-RasG12C (Q07889 564-1049 limits assumed): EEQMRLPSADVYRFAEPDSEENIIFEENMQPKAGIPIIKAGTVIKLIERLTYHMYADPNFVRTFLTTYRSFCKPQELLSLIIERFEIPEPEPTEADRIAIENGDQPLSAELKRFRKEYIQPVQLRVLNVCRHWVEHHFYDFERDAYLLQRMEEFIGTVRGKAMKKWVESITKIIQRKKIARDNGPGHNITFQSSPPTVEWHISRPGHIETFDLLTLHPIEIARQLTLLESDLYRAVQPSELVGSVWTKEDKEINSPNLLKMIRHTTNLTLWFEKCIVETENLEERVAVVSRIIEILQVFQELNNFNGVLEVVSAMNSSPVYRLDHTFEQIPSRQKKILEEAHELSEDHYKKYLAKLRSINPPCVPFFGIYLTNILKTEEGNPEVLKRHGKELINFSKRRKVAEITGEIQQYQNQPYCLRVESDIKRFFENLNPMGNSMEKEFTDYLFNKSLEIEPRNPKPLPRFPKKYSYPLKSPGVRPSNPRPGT

Row | SMILES | IC50
1 | Cc1nc(N[C@H](C)c2cccc(C(F)(F)F)c2F)c2cc(P(C)(C)=O)ncc2n1 [Example 55, 6-(dimethylphosphoryl)-N-{(1R)-1-[2-fluoro-3-(trifluoromethyl)phenyl]ethyl}-2-methylpyrido[3,4-d]pyrimidin-4-amine] | 26.2 nM
2 | Cc1nc(N[C@H](C)c2cccc(Br)c2F)c2cc(P(C)(C)=O)ncc2n1 [Example 56, N-[(1R)-1-(3-bromo-2-fluorophenyl)ethyl]-6-(dimethylphosphoryl)-2-methylpyrido[3,4-d]pyrimidin-4-amine] | 74.1 nM
3 | CC(=O)N1CCP(=O)(c2cc3c(N[C@H](C)c4cccc(C(F)F)c4)nc(C)nc3cn2)CC1 [Example 57, 1-acetyl-4-[4-{{(1R)-1-[3-(difluoromethyl)phenyl]ethyl}amino)-2-methylpyrido[3,4-d]pyrimidin-6-yl]-1,4lambda^5-azaphosphinan-4-one] | 19.3 nM
4 | CC(=O)N1CCP(=O)(c2cc3c(N[C@H](C)c4cc(C)cc(C(F)(F)F)c4C)nc(C)nc3cn2)CC1 [Example 58, 1-acetyl-4-[4-{{(1R)-1-[2,5-dimethyl-3-(trifluoromethyl)phenyl]ethyl}amino)-2-methylpyrido[3,4-d]pyrimidin-6-yl]-1,4lambda^5-azaphosphinan-4-one] | 6.33 nM
5 | Cc1nc(N[C@H](C)c2cccc(C(F)(F)CO)c2F)c2cc(P3(=O)CC=CC3)ncc2n1 [Example 59, 1-[4-{{(1R)-1-[3-(1,1-difluoro-2-hydroxyethyl)-2-fluorophenyl]ethyl}amino)-2-methylpyrido[3,4-d]pyrimidin-6-yl]-2,5-dihydro-1H-1lambda^5-phosphol-1-one] | 7.06 nM
6 | [2H]C([2H])(O)C(F)(F)c1cccc([C@@H](C)Nc2nc(C)nc3cnc(P(C)(C)=O)cc23)c1F [Example 60, 2-{3-[(1R)-1-{[6-(dimethylphosphoryl)-2-methylpyrido[3,4-d]pyrimidin-4-yl]amino}ethyl]-2-fluorophenyl}-2,2-difluoro(^2H2)ethan-1-ol] | 13.5 nM
7 | [2H]C([2H])(O)C(F)(F)c1cccc([C@@H](C)Nc2nc(C)nc3cnc(P4(=O)CCCC4)cc23)c1F [Example 61, 1-(4-{[(1R)-1-{3-[1,1-difluoro-2-hydroxy(^2H2)ethyl]-2-fluorophenyl}ethyl]amino}-2-methylpyrido[3,4-d]pyrimidin-6-yl)-1lambda^5-phospholan-1-one] | 9.82 nM
8 | Cc1nc(N[C@H](C)c2cccc(C(F)(F)CO)c2F)c2cc(P(C)(C)=O)ncc2n1 [Example 62, 2-{3-[(1R)-1-{[6-(dimethylphosphoryl)-2-methylpyrido[3,4-d]pyrimidin-4-yl]amino}ethyl]-2-fluorophenyl}-2,2-difluoroethan-1-ol] | 13.5 nM
9 | Cc1nc(N[C@H](C)c2cccc(C(F)(F)CO)c2F)c2cc(P3(=O)CCCC3)ncc2n1 [Example 63, 1-[4-{{(1R)-1-[3-(1,1-difluoro-2-hydroxyethyl)-2-fluorophenyl]ethyl}amino)-2-methylpyrido[3,4-d]pyrimidin-6-yl]-1lambda^5-phospholan-1-one] | 10.1 nM
10 | CCP(=O)(CC)c1cc2c(N[C@H](C)c3cccc(C(F)(F)CO)c3F)nc(C)nc2cn1 [Example 64, 2-{3-[(1R)-1-{[6-(diethylphosphoryl)-2-methylpyrido[3,4-d]pyrimidin-4-yl]amino}ethyl]-2-fluorophenyl}-2,2-difluoroethan-1-ol] | 17.8 nM
11 | CCP(C)(=O)c1cc2c(N[C@H](C)c3cccc(C(F)(F)C(C)(C)O)c3F)nc(C)nc2cn1 (stereo partly drawn) [Example 67, 1-{3-[(1R)-1-{{6-[ethyl(methyl)phosphoryl]-2-methylpyrido[3,4-d]pyrimidin-4-yl}amino)ethyl]-2-fluorophenyl}-1,1-difluoro-2-methylpropan-2-ol] | 66.9 nM
12 | Cc1nc(N[C@H](C)c2cccc(C(F)(F)C(C)(C)O)c2F)c2cc(P(C)(=O)C(C)C)ncc2n1 (stereo partly drawn) [Example 70, 1,1-difluoro-1-{2-fluoro-3-[(1R)-1-({2-methyl-6-[methyl(propan-2-yl)phosphoryl]pyrido[3,4-d]pyrimidin-4-yl}amino)ethyl]phenyl}-2-methylpropan-2-ol] | 27.6 nM
13 | Cc1nc(N[C@H](C)c2cccc(C(F)(F)C(C)(C)O)c2F)c2cc(P3(=O)CC=CC3)ncc2n1 [Example 85, 1-[4-({(1R)-1-[3-(1,1-difluoro-2-hydroxy-2-methylpropyl)-2-fluorophenyl]ethyl}amino)-2-methylpyrido[3,4-d]pyrimidin-6-yl]-2,5-dihydro-1H-1lambda^5-phosphol-1-one] | 12 nM
14 | Cc1nc(N[C@H](C)c2cccc(C(F)(F)F)c2C)c2cc(P3(=O)CCN(C(=O)OC(C)(C)C)CC3)nc(C)c2n1 [Example 91, tert-butyl 4-[2,8-dimethyl-4-({(1R)-1-[2-methyl-3-(trifluoromethyl)phenyl]ethyl}amino)pyrido[3,4-d]pyrimidin-6-yl]-4-oxo-1,4lambda^5-azaphosphinane-1-carboxylate] | 286 nM
15 | CCP(=O)(CC)c1cc2c(N[C@H](C)c3cccc(C(F)F)c3F)nc(C)nc2cn1 [Example 92, 6-(diethylphosphoryl)-N-{(1R)-1-[3-(difluoromethyl)-2-fluorophenyl]ethyl}-2-methylpyrido[3,4-d]pyrimidin-4-amine] | 77.2 nM
16 | COCC(F)(F)c1cccc([C@@H](C)Nc2nc(C)nc3cnc(P4(=O)CCCC4)cc23)c1F [Example 93, 1-[4-{{(1R)-1-[3-(1,1-difluoro-2-methoxyethyl)-2-fluorophenyl]ethyl}amino)-2-methylpyrido[3,4-d]pyrimidin-6-yl]-1lambda^5-phospholan-1-one] | 37 nM
17 | COCC(F)(F)c1cccc([C@@H](C)Nc2nc(C)nc3cnc(P(C)(C)=O)cc23)c1F [Example 94, N-{(1R)-1-[3-(1,1-difluoro-2-methoxyethyl)-2-fluorophenyl]ethyl}-6-(dimethylphosphoryl)-2-methylpyrido[3,4-d]pyrimidin-4-amine] | 46.5 nM
18 | Cc1nc(N[C@H](C)c2cc(N)cc(C(F)(F)F)c2)c2cc(P3(=O)CCCC3)ncc2n1 [Example 95, 1-[4-{{(1R)-1-[3-amino-5-(trifluoromethyl)phenyl]ethyl}amino)-2-methylpyrido[3,4-d]pyrimidin-6-yl]-1lambda^5-phospholan-1-one] | 23.9 nM
19 | CCP(=O)(CC)c1cc2c(N[C@H](C)c3cccc(C(F)(F)F)c3C)nc(C)nc2cn1 [Example 96, 6-(diethylphosphoryl)-2-methyl-N-{(1R)-1-[2-methyl-3-(trifluoromethyl)phenyl]ethyl}pyrido[3,4-d]pyrimidin-4-amine] | 50.2 nM
20 | Cc1nc(N[C@H](C)c2cc(N)cc(C(F)(F)F)c2)c2cc(P(C)(C)=O)ncc2n1 [Example 97, N-{(1R)-1-[3-amino-5-(trifluoromethyl)phenyl]ethyl}-6-(dimethylphosphoryl)-2-methylpyrido[3,4-d]pyrimidin-4-amine] | 13.6 nM
21 | Cc1nc(N[C@H](C)c2cccc(C(F)(F)F)c2C)c2cc(P(=O)(C(C)C)C(C)C)ncc2n1 [Example 98, 6-[di(propan-2-yl)phosphoryl]-2-methyl-N-{(1R)-1-[2-methyl-3-(trifluoromethyl)phenyl]ethyl}pyrido[3,4-d]pyrimidin-4-amine] | 139 nM
22 | Cc1nc(N[C@H](C)c2cccc(C(F)(F)F)c2C)c2cc(P3(=O)CCCC3)ncc2n1 [Example 99, 1-[2-methyl-4-{{(1R)-1-[2-methyl-3-(trifluoromethyl)phenyl]ethyl}amino)pyrido[3,4-d]pyrimidin-6-yl]-1lambda^5-phospholan-1-one] | 32.1 nM
23 | Cc1nc(N[C@H](C)c2cccc(C(F)(F)F)c2C)c2cc(P3(=O)CCCC3)c(C)nc2n1 [Example 100, 1-[2,7-dimethyl-4-{{(1R)-1-[2-methyl-3-(trifluoromethyl)phenyl]ethyl}amino)pyrido[2,3-d]pyrimidin-6-yl]-1lambda^5-phospholan-1-one] | 4.89 nM
24 | COc1nc2nc(C)nc(N[C@H](C)c3cccc(C(F)(F)F)c3C)c2cc1P(C)(C)=O [Example 101, 6-(dimethylphosphoryl)-7-methoxy-2-methyl-N-{(1R)-1-[2-methyl-3-(trifluoromethyl)phenyl]ethyl}pyrido[2,3-d]pyrimidin-4-amine] | 17.5 nM
25 | Cc1nc(N[C@H](C)c2cccc(C(F)(F)F)c2C)c2cc(P(=O)(C(C)C)C(C)C)c(C)nc2n1 [Example 102, 6-[di(propan-2-yl)phosphoryl]-2,7-dimethyl-N-{(1R)-1-[2-methyl-3-(trifluoromethyl)phenyl]ethyl}pyrido[2,3-d]pyrimidin-4-amine] | 80.2 nM
26 | CCP(=O)(CC)c1cnc2nc(C)nc(N[C@H](C)c3cccc(C(F)(F)C(C)(C)O)c3F)c2c1 [Example 103, 1-{3-[(1R)-1-{[6-(diethylphosphoryl)-2-methylpyrido[2,3-d]pyrimidin-4-yl]amino}ethyl]-2-fluorophenyl}-1,1-difluoro-2-methylpropan-2-ol] | 14.2 nM
27 | Cc1nc(N[C@H](C)c2cccc(C(F)(F)F)c2C)c2cc(P3(=O)CCCC3)ccc2n1 [Example 104, 1-[2-methyl-4-{{(1R)-1-[2-methyl-3-(trifluoromethyl)phenyl]ethyl}amino)quinazolin-6-yl]-1lambda^5-phospholan-1-one] | 18.8 nM
28 | Cc1nc(N[C@H](C)c2cccc(C(F)(F)F)c2C)c2cc(P3(=O)CCN(Cc4ccccc4)CC3)ccc2n1 [Example 105, 1-benzyl-4-[2-methyl-4-({(1R)-1-[2-methyl-3-(trifluoromethyl)phenyl]ethyl}amino)quinazolin-6-yl]-1,4lambda^5-azaphosphinan-4-one] | 117 nM
29 | Cc1nc(N[C@H](C)c2cccc(C(F)(F)F)c2C)c2cc(P(C)(C)=O)ccc2n1 [Example 106, 6-(dimethylphosphoryl)-2-methyl-N-{(1R)-1-[2-methyl-3-(trifluoromethyl)phenyl]ethyl}quinazolin-4-amine] | 16.1 nM
